Assay results published in US20250034171A1, “IMIDAZOPYRIDINE AMIDES AND RELATED COMPOUNDS FOR USE IN THE TREATMENT OF BACTERIAL INFECTIONS” (priority 2021, published 2025).
Converted amounts (≈) assume the structure as drawn. Where two headings read alike, the source gives them in different places.

Test system: Mycobacterium tuberculosis strain H37Rv
Assay: Test 2: MIC determination against M. tuberculosis, resazurin fluorescence
Type: cell-based
Conditions: Test 2, M. tuberculosis H37Rv; for MIC90: read-out: Bacterial activity MIC90; for IC50: read-out: Bacterial activity pMIC50 (converted)
[1] = Mycobacterium tuberculosis, H37RV

SMILES | MIC90 [1] [µM] | IC50 [1] [pM] | Bacterial activity pMIC50 | MIC90 [µM]
CCc1nc2ncc(C)cn2c1C(=O)NCc1ccc(-c2nc3n(n2)CCC(F)C3)cc1 (stereo not drawn) [Compound 96] | 0.094 (≈ 0.0407 µg/mL) | 33900 |  | 
CCc1nc2ncc(C)cn2c1C(=O)NCc1ccc(-c2nc3n(n2)CCC(C)C3)c(F)c1 (stereo not drawn) [Compound 97] | 0.057 (≈ 0.0255 µg/mL) | 19100 |  | 
CCOC1CCn2nc(-c3ccc(CNC(=O)c4c(CC)nc5ncc(C)cn45)cc3)nc2C1 (stereo not drawn) [Compound 98] | 0.11 (≈ 0.0506 µg/mL) | 27500 |  | 
CCc1nc2nc(C)ccn2c1C(=O)NCc1ccc(-c2nc3n(n2)CCC(C(F)F)C3)cc1 (stereo not drawn) [Compound 99] | 0.22 (≈ 0.102 µg/mL) | 70800 |  | 
Cc1cnc2nc(C(C)C)c(C(=O)NCc3ccc(-c4cn5c(n4)CC(C(F)(F)F)CC5)cc3)n2c1 (stereo not drawn) [Compound 100] | 0.2 (≈ 0.0993 µg/mL) | 61700 |  | 
O=C(NCc1cnc(-c2cn3c(n2)CC(C(F)(F)F)CC3)c(F)c1)c1c(C(F)(F)F)nc2ccccn12 (stereo not drawn) [Compound 101] | 3.95 (≈ 2.08 µg/mL) | 2e+06 |  | 
CCc1nc2ncc(C)cn2c1C(=O)NCc1ccc(-c2nc3n(n2)CCC(OC)C3)c(F)c1 (stereo not drawn) [Compound 107] | 0.33 (≈ 0.153 µg/mL) | 135000 |  | 
CCc1nc2ncc(C)cn2c1C(=O)NCc1ccc(-c2cn3c(n2)CC(CC)CC3)cc1 (stereo not drawn) [Compound 109] |  |  | 8.04 | 0.024 (≈ 0.0106 µg/mL)
CCc1nc2ncc(C)cn2c1C(=O)NCc1ccc(-c2nc3n(n2)CCC(CC(F)(F)F)C3)cc1 (stereo not drawn) [Compound 110] | 0.016 (≈ 0.00796 µg/mL) | 5890 |  | 
CCc1nc2ncc(OC)cn2c1C(=O)NCc1ccc(-c2cn3c(n2)C[C@H](C(F)(F)F)CC3)cc1 [Compound 111] | 0.012 (≈ 0.00598 µg/mL) | 4680 |  | 
CCc1nc2ncc(OC)cn2c1C(=O)NCc1ccc(-c2cn3c(n2)C[C@@H](C(F)(F)F)CC3)cc1 [Compound 112] | 0.027 (≈ 0.0135 µg/mL) | 8510 |  | 
CCc1nc2cc(F)ccn2c1C(=O)NCc1ccc(-c2cn3c(n2)C[C@@H](C(F)(F)F)CC3)cc1 [Compound 113] | 0.034 (≈ 0.0165 µg/mL) | 12900 |  | 
CCc1nc2cc(F)ccn2c1C(=O)NCc1ccc(-c2cn3c(n2)C[C@H](C(F)(F)F)CC3)cc1 [Compound 114] | 0.032 (≈ 0.0155 µg/mL) | 7590 |  | 
CCc1nc2ncc(C)cn2c1C(=O)NCc1ccc(-c2nc3n(n2)CCC(C)(COC)C3)cc1 (stereo not drawn) [Compound 115] | 0.096 (≈ 0.0455 µg/mL) | 24500 |  | 
CCc1nc2ncc(C)cn2c1C(=O)NCc1ccc(-c2cn3c(n2)CCC(C(F)(F)F)C3)cc1 (stereo not drawn) [Compound 116] | 0.0097 (≈ 0.00468 µg/mL) | 4570 |  | 
CCc1nc2ncc(C)cn2c1C(=O)NCc1ccc(-c2cn3c(n2)CC(C(F)(F)F)CC3)c(F)c1 (stereo not drawn) [Compound 117] | 0.077 (≈ 0.0385 µg/mL) | 3090 |  | 
CCc1nc2ncc(OC)cn2c1C(=O)NCc1ccc(-c2nc3n(n2)CCCC3)cc1 [Compound 119] |  |  | 7.72 | 0.052 (≈ 0.0224 µg/mL)
CCc1nc2ncc(C)cn2c1C(=O)NCc1ccc(-c2cn3c(n2)CC(C(F)(F)F)CC3)c(C)c1 (stereo not drawn) [Compound 121] | 0.035 (≈ 0.0174 µg/mL) | 8710 |  | 
CCc1nc2ncc(C)cn2c1C(=O)NCc1cnc(-c2cn3c(n2)CC(C(F)(F)F)CC3)cc1C (stereo not drawn) [Compound 122] | 0.21 (≈ 0.104 µg/mL) | 43700 |  | 
CCc1nc2ncc(C)cn2c1C(=O)NCc1cnc(-c2cn3c(n2)CC(C(F)(F)F)CC3)c(C)c1 (stereo not drawn) [Compound 123] | > 0.5 | > 501000 |  | 
CCc1nc2ncc(C)cn2c1C(=O)NCc1ccc(-c2nc3n(n2)CC(C)CC3)cc1 (stereo not drawn) [Compound 125] | 0.04 (≈ 0.0172 µg/mL) | 11200 |  | 
CCc1nc2ccccn2c1C(=O)NCc1ccc(-c2nc3n(n2)CCC(C(C)(F)F)C3)cc1 (stereo not drawn) [Compound 133] | 0.051 (≈ 0.0237 µg/mL) | 11700 |  | 
CCc1nc2n(c1C(=O)NCc1ccc(-c3nc4n(n3)CCC(C(C)(F)F)C4)cc1)CCCC2 (stereo not drawn) [Compound 134] | 0.12 (≈ 0.0562 µg/mL) | 25700 |  | 
CCc1nc2nc(CN)ccn2c1C(=O)NCc1ccc(-c2nc3n(n2)CCC(C(F)(F)F)C3)cc1 (stereo not drawn) [Compound 138] | > 0.5 | > 501000 |  | 
CCc1nc2n(c1C(=O)NCc1ccc(-c3nc4n(n3)CC[C@@H](C(F)(F)F)C4)cc1)C[C@H](OC)CC2 [Compound 140] | 0.33 (≈ 0.166 µg/mL) | 115000 |  | 
CCc1nc2n(c1C(=O)NCc1ccc(-c3nc4n(n3)CC[C@H](C(F)(F)F)C4)cc1)C[C@H](OC)CC2 [Compound 141] | > 0.5 | 166000 |  | 
CCc1nc2n(c1C(=O)NCc1ccc(-c3cn4c(n3)C[C@@H](C(F)(F)F)CC4)cc1)CCCC2 [Compound 142] | 0.097 (≈ 0.0457 µg/mL) | 22900 |  | 
CCc1nc2ncc(C)cn2c1C(=O)NCc1ccc(-c2nc3n(n2)CCC(COC)C3)c(F)c1 (stereo not drawn) [Compound 143] | 0.092 (≈ 0.0439 µg/mL) | 33100 |  | 
CCc1nc2cc(F)ccn2c1C(=O)NCc1ccc(-c2nc3n(n2)CCC(C(C)(F)F)C3)cc1 (stereo not drawn) [Compound 145] | 0.041 (≈ 0.0198 µg/mL) | 11500 |  | 
CCc1nc2ncc(C)cn2c1C(=O)NCc1ccc(-c2cc3n(n2)CCCC3)c(C)n1 [Compound 146] | 0.15 (≈ 0.0644 µg/mL) | 42700 |  | 
